Data: patent US10167262B2, “Herbicidal substituted 3-arylpyrazoles” (FMC CORPORATION, priority 2014, dated 2019)

Experiments:
Assay in all cases: Test C postemergence greenhouse test, plant response rating 0-100
Assay type in all cases: in vivo
[1] = test system: windgrass (Apera spica-venti); details: for Plant response rating, Windgrass: scale 0 to 100
Procedure, shortened: (§1)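 Plants rated visually 0 (no effect) to 100 (complete control) against untreated controls after 13 to 15 days in the greenhouse, dash indicating no result. Treatment was a postemergence application of formulated chemicals at the 1- to 4-leaf stage (2 to 18 cm), in pots of peat-vermiculite medium.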

[2] = test system: winter barley (Hordeum vulgare); details: for Plant response rating, Barley: scale 0 to 100
Procedure, shortened: as §1

[3] = test system: cocklebur (common cocklebur, Xanthium strumarium); details: for Plant response rating, Cocklebur: scale 0 to 100
Procedure, shortened: as §1

[4] = test system: deadnettle (henbit deadnettle, Lamium amplexicaule); details: for Plant response rating, Deadnettle: scale 0 to 100
Procedure, shortened: as §1

[5] = test system: downy bromegrass (Bromus tectorum); details: for Plant response rating, Bromegrass, Downy: scale 0 to 100
Procedure, shortened: as §1

[6] = test system: surinam grass (Brachiaria decumbens); details: for Plant response rating, Surinam Grass: scale 0 to 100
Procedure, shortened: as §1

[7] = test system: green foxtail (Setaria viridis); details: for Plant response rating, Foxtail, Green: scale 0 to 100
Procedure, shortened: as §1

[8] = test system: woolly cupgrass (Eriochloa villosa); details: for Plant response rating, Cupgrass, Woolly: scale 0 to 100
Procedure, shortened: as §1

[9] = test system: bermudagrass (Cynodon dactylon); details: for Plant response rating, Bermudagrass: scale 0 to 100
Procedure, shortened: as §1

[10] = test system: canarygrass (Phalaris minor); details: for Plant response rating, Canarygrass: scale 0 to 100
Procedure, shortened: as §1

Structure (SMILES) | Plant response rating (0 to 100), Windgrass ([1]; 62 g ai/ha) | Plant response rating (0 to 100), Windgrass ([1]; 125 g ai/ha) | Plant response rating, Windgrass ([1]; 250 g ai/ha) | Plant response rating (0 to 100), Barley ([2]; 62 g ai/ha) | Plant response rating, Barley ([2]; 125 g ai/ha) | Plant response rating, Barley ([2]; 250 g ai/ha) | Plant response rating (0 to 100), Deadnettle ([4]; 62 g ai/ha) | Plant response rating (0 to 100), Deadnettle ([4]; 125 g ai/ha) | Plant response rating, Deadnettle ([4]; 250 g ai/ha) | Plant response rating (0 to 100), Bromegrass, Downy ([5]; 62 g ai/ha) | Plant response rating, Bromegrass, Downy ([5]; 125 g ai/ha) | Plant response rating, Bromegrass, Downy ([5]; 250 g ai/ha) | Plant response rating (0 to 100), Surinam Grass ([6]; 62 g ai/ha) | Plant response rating (0 to 100), Surinam Grass ([6]; 125 g ai/ha) | Plant response rating, Surinam Grass ([6]; 250 g ai/ha) | Plant response rating (0 to 100), Foxtail, Green ([7]; 62 g ai/ha) | Plant response rating (0 to 100), Foxtail, Green ([7]; 125 g ai/ha) | Plant response rating, Foxtail, Green ([7]; 250 g ai/ha) | Plant response rating (0 to 100), Cupgrass, Woolly ([8]; 62 g ai/ha) | Plant response rating (0 to 100), Cupgrass, Woolly ([8]; 125 g ai/ha) | other results
Cn1cc(C(=O)c2cccs2)c(-c2cc(Cl)cc(Cl)c2)n1 [Compound 17] | 0 | 0 | 0 | 0 | 0 | 0 | 0 | 0 | 0 | 0 | 0 | 0 | 0 | 0 | 5 | 0 | 0 | 0 | 0 | 0 | Plant response rating, Windgrass ([1]; 500 g ai/ha): 0; Plant response rating, Barley ([2]; 500 g ai/ha): 0; Plant response rating (0 to 100), Cocklebur ([3]; 62 g ai/ha): 5; Plant response rating (0 to 100), Cocklebur ([3]; 125 g ai/ha): 10; Plant response rating, Cocklebur ([3]; 250 g ai/ha): 30; Plant response rating, Cocklebur ([3]; 500 g ai/ha): 40; Plant response rating, Deadnettle ([4]; 500 g ai/ha): 0; Plant response rating, Bromegrass, Downy ([5]; 500 g ai/ha): 0; Plant response rating, Surinam Grass ([6]; 500 g ai/ha): 5; Plant response rating, Foxtail, Green ([7]; 500 g ai/ha): 0; Plant response rating, Cupgrass, Woolly ([8]; 250 g ai/ha): 0; Plant response rating, Cupgrass, Woolly ([8]; 500 g ai/ha): 15; Plant response rating (0 to 100), Bermudagrass ([9]; 62 g ai/ha): 0; Plant response rating, Bermudagrass ([9]; 125 g ai/ha): 0; Plant response rating, Bermudagrass ([9]; 250 g ai/ha): 0; Plant response rating, Bermudagrass ([9]; 500 g ai/ha): 0; Plant response rating (0 to 100), Canarygrass ([10]; 62 g ai/ha): 0; Plant response rating (0 to 100), Canarygrass ([10]; 125 g ai/ha): 0; Plant response rating, Canarygrass ([10]; 250 g ai/ha): 0; Plant response rating, Canarygrass ([10]; 500 g ai/ha): 5
CCn1cc(C(=O)c2cccs2)c(-c2cc(Cl)cc(Cl)c2)n1 [Compound 18] | 0 | 0 | 0 | 0 | 0 | 0 | 20 | 40 | 55 | 0 | 0 | 0 | 5 | 5 | 10 | 0 | 0 | 0 | 5 | 10 | Plant response rating, Windgrass ([1]; 500 g ai/ha): 5; Plant response rating, Barley ([2]; 500 g ai/ha): 0; Plant response rating (0 to 100), Cocklebur ([3]; 62 g ai/ha): 5; Plant response rating (0 to 100), Cocklebur ([3]; 125 g ai/ha): 5; Plant response rating, Cocklebur ([3]; 250 g ai/ha): 15; Plant response rating, Cocklebur ([3]; 500 g ai/ha): 20; Plant response rating, Deadnettle ([4]; 500 g ai/ha): 60; Plant response rating, Bromegrass, Downy ([5]; 500 g ai/ha): 0; Plant response rating, Surinam Grass ([6]; 500 g ai/ha): 10; Plant response rating, Foxtail, Green ([7]; 500 g ai/ha): 0; Plant response rating, Cupgrass, Woolly ([8]; 250 g ai/ha): 15; Plant response rating, Cupgrass, Woolly ([8]; 500 g ai/ha): 20; Plant response rating (0 to 100), Bermudagrass ([9]; 62 g ai/ha): 0; Plant response rating, Bermudagrass ([9]; 125 g ai/ha): 0; Plant response rating, Bermudagrass ([9]; 250 g ai/ha): 0; Plant response rating, Bermudagrass ([9]; 500 g ai/ha): 5; Plant response rating (0 to 100), Canarygrass ([10]; 62 g ai/ha): 0; Plant response rating (0 to 100), Canarygrass ([10]; 125 g ai/ha): 0; Plant response rating, Canarygrass ([10]; 250 g ai/ha): 0; Plant response rating, Canarygrass ([10]; 500 g ai/ha): 5
Cn1cc(C(=NN2CCCC2)c2ccccc2)c(-c2cc(Cl)c(Cl)c(Cl)c2)n1 [Compound 25] | 0 | 0 | 25 | 0 | 5 | 10 | 0 | 0 | 0 | 0 | 0 | 0 | 0 | 0 | 0 | 0 | 5 | 15 | 0 | 0 | Plant response rating (0 to 100), Barley ([2]; 31 g ai/ha): 0; Plant response rating (0 to 100), Cocklebur ([3]; 31 g ai/ha): 5; Plant response rating (0 to 100), Cocklebur ([3]; 62 g ai/ha): 15; Plant response rating (0 to 100), Cocklebur ([3]; 125 g ai/ha): 15; Plant response rating, Cocklebur ([3]; 250 g ai/ha): 25; Plant response rating (0 to 100), Deadnettle ([4]; 31 g ai/ha): 0; Plant response rating (0 to 100), Bromegrass, Downy ([5]; 31 g ai/ha): 0; Plant response rating (0 to 100), Foxtail, Green ([7]; 31 g ai/ha): 0; Plant response rating (0 to 100), Cupgrass, Woolly ([8]; 31 g ai/ha): 0; Plant response rating, Cupgrass, Woolly ([8]; 250 g ai/ha): 0; Plant response rating (0 to 100), Bermudagrass ([9]; 31 g ai/ha): 0; Plant response rating (0 to 100), Bermudagrass ([9]; 62 g ai/ha): 0; Plant response rating, Bermudagrass ([9]; 125 g ai/ha): 0; Plant response rating, Bermudagrass ([9]; 250 g ai/ha): 0; Plant response rating (0 to 100), Canarygrass ([10]; 31 g ai/ha): 0; Plant response rating (0 to 100), Canarygrass ([10]; 62 g ai/ha): 0; Plant response rating (0 to 100), Canarygrass ([10]; 125 g ai/ha): 0; Plant response rating, Canarygrass ([10]; 250 g ai/ha): 5
Clc1cc(Cl)cc(-c2n[nH]cc2C(=NN2CCCC2)c2ccccc2)c1 [Compound 30, N-[[3-(3,5-dichlorophenyl)-1H-pyrazol-4-yl]phenylmethylene]-1-pyrrolidinamine] | 0 | 0 | 0 | 0 | 0 | 0 | 0 | 0 | 0 | 0 | 0 | 0 | 0 | 0 | 0 | 0 | 0 | 0 | 0 | 0 | Plant response rating (0 to 100), Barley ([2]; 31 g ai/ha): 0; Plant response rating (0 to 100), Cocklebur ([3]; 31 g ai/ha): 10; Plant response rating (0 to 100), Deadnettle ([4]; 31 g ai/ha): 0; Plant response rating (0 to 100), Bromegrass, Downy ([5]; 31 g ai/ha): 0; Plant response rating (0 to 100), Foxtail, Green ([7]; 31 g ai/ha): 0; Plant response rating (0 to 100), Cupgrass, Woolly ([8]; 31 g ai/ha): 0; Plant response rating, Cupgrass, Woolly ([8]; 250 g ai/ha): 0; Plant response rating (0 to 100), Bermudagrass ([9]; 31 g ai/ha): 0; Plant response rating (0 to 100), Bermudagrass ([9]; 62 g ai/ha): 0; Plant response rating, Bermudagrass ([9]; 125 g ai/ha): 0; Plant response rating, Bermudagrass ([9]; 250 g ai/ha): 0; Plant response rating (0 to 100), Canarygrass ([10]; 31 g ai/ha): 0; Plant response rating (0 to 100), Canarygrass ([10]; 62 g ai/ha): 0; Plant response rating (0 to 100), Canarygrass ([10]; 125 g ai/ha): 0; Plant response rating, Canarygrass ([10]; 250 g ai/ha): 0
